What all share (assay): NCI-60 cell line screen, 48 h
In assay [1] the test system is A549 NSCLC.
In assay [2] the test system is HCC-2998 colon.
For assay [3], the system named is MCF7 breast.
Assay [4] relates to MDA-MB-231 breast.
For assay [5], the system named is NCI-H226 lung.
Assay [6] concerns NCI-H460 lung.
Assay [7] relates to OVCAR-5 ovarian.
Assay [8] concerns RPMI-8226 leukemia.
For assay [9], the system named is SF-268 CNS.
Assay [10] relates to UACC-257 melanoma.

Molecules are shown by their SMILES.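 Protocol summary: plate cells (96-well), add compound at 5 concentrations, incubate 48 h, interpolate endpoints linearly. GI50: concentration for 50% inhibition of growth. TGI: concentration producing complete growth inhibition.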 Some results are limits rather than exact numbers.

`O=C1NC(O)C(c2c[nH]c3ccccc23)=C1c1c[nH]c2ccccc12` (stereo not given): the GI50 was over 25 µM in assay [1]; over 25 µM in assay [2]; over 25 µM in assay [3]; over 16.5 µM in assay [4]; over 25 µM in [5]; over 25 µM in assay [6]. Besides, the GI50 in assay [7], in assay [8], in assay [9] and in assay [10] was over 25 µM throughout. The TGI in [1], in assay [2], in [3], in assay [4], in assay [5] and in [6] was over 25 µM throughout. For the same molecule, the TGI in [7], in [8], in assay [9] and in [10] was over 25 µM each time.
Take `C=C(CN1C(=O)[C@H]2CCCN2C(=O)c2ccccc21)c1ccc(C(=O)O)cc1`: the GI50 in [1], in [2], in assay [3], in [4], in [5] and in assay [6] was over 100 µM each time. In addition, the GI50 in assay [7], in [8], in assay [9] and in assay [10] was over 100 µM each time. The TGI in assay [1], in [2], in assay [3], in assay [4], in assay [5] and in assay [6] was over 100 µM throughout. The TGI in assay [7], in assay [8], in assay [9] and in [10] was over 100 µM each time.
